Source: patent US4051315A, “6"-Deoxykanamycin B and 6"-deoxytobramycin” (priority 1975, dated 1977)
Read-outs that look alike come from different tables or passages of the source.

Columns and labels:
Assay type in all cases: cell-based
[1] = system: S. aureus D137 PC, TC, EM-R; assay: two-fold agar dilution MIC, Sa-9
E. coli NR79/W677 KAT = assay: two-fold agar dilution MIC, Ec-9; conditions: Escherichia coli, NR79/W677KAT
P. stuartii A20894 GAT-2 = assay: two-fold agar dilution MIC, Ps-2
P. mirabilis A9554 CL-R = assay: two-fold agar dilution MIC, Pm-1
E. coli A20732 GAS = assay: two-fold agar dilution MIC, Ec-72; conditions: Escherichia coli, A20732GAS
[2] = system: K. pneumoniae 22-3038 NPT-2, GAS; assay: two-fold agar dilution MIC, Kp-8
S. marcescens A20019 = assay: two-fold agar dilution MIC, Sm-1; conditions: Serratia marcescens
P. aeruginosa GN-315 KAT = assay: two-fold agar dilution MIC, Pa-27
S. aureus A20239 NPT-1,2 = assay: two-fold agar dilution MIC, Sa-10; conditions: Run 2; Sa-10
E. cloacae A20364 NPT-1 = assay: two-fold agar dilution MIC, E1-2; conditions: Enterobacter cloacae
E. cloacae A21006 NPT-2 = assay: two-fold agar dilution MIC, E1-12
E. coli R5 KAT = assay: two-fold agar dilution MIC, Ec-55
P. aeruginosa GN-4925 = assay: two-fold agar dilution MIC, Pa-45; conditions: Pseudomonas aeruginosa
B. subtilis PCT-219 = assay: two-fold agar dilution MIC, Bs-1; conditions: Bacillus subtilis
S. aureus D133 SH, Sth-R = assay: two-fold agar dilution MIC, Sa-4
E. coli P01495 CP.TC-R = assay: two-fold agar dilution MIC, Ec-2; conditions: Escherichia coli, P01495CP.TCR
[3] = system: P. aeruginosa #130 GAT-1, NPT; assay: two-fold agar dilution MIC, Pa-16
K. pneumoniae D11 = assay: two-fold agar dilution MIC, Kp-1; conditions: Klebsiella pneumoniae
E. coli JR88 CAT-1 = assay: two-fold agar dilution MIC, Ec-62
[4] = system: S. marcescens A21247 NPT-1, GAS; assay: two-fold agar dilution MIC, Sm-16; conditions: Serratia marcescens
S. aureus Smith = assay: two-fold agar dilution MIC, Sa-2; conditions: Staphylococcus aureus
[5] = system: P. aeruginosa A20896 GAT-3; assay: two-fold agar dilution MIC, Pa-24
[6] = system: P. aeruginosa A20601 GAT-1; assay: two-fold agar dilution MIC, Pa-21; conditions: Pseudomonas aeruginosa
E. coli A20107 NPT-2 = assay: two-fold agar dilution MIC, Ec-49; conditions: Escherichia coli
E. coli NIHJ = assay: two-fold agar dilution MIC, Ec-1
E. coli JR35/C600 NPT-1 = assay: two-fold agar dilution MIC, Ec-10
E. coli ML1630 NPT-1 = assay: two-fold agar dilution MIC, Ec-5; conditions: Escherichia coli
[7] = system: P. aeruginosa A20653 NPT-1,2; assay: two-fold agar dilution MIC, Pa-12; conditions: Pseudomonas aeruginosa
P. aeruginosa A9930 = assay: two-fold agar dilution MIC, Pa-3; conditions: Pseudomonas aeruginosa
[8] = system: E. coli JR66/W677 NPT-2, GAS; assay: two-fold agar dilution MIC, Ec-53
P. vulgaris A9436 = assay: two-fold agar dilution MIC, Pv-1
[9] = system: Pseudomonas sp. A20621 KAT, NPT-1,2; assay: two-fold agar dilution MIC, Px-10
[10] = Staphylococcus aureus, Run 1, read-out: MIC

Measured: MIC

NCC1OC(OC2C(N)CC(N)C(OC3OC(CO)C(O)C(N)C3O)C2O)C(N)CC1O (stereo not drawn) [tobramycin, 3'-deoxykanamycin B]
3.1 µg/mL: [1]; Run 2 | [1]; [10] | [3]; Pseudomonas aeruginosa, Run 1, read-out: MIC | [3]; Run 2 | [6]; A20601GAT1, Run 1 | [7]; Run 2
100 µg/mL: P. aeruginosa GN-4925; GN4925, Run 1
< 0.05 µg/mL: B. subtilis PCT-219; PCT219, Run 2
0.8 µg/mL: E. coli NR79/W677 KAT; Run 2 | P. mirabilis A9554 CL-R; Proteus mirabilis, A9554CLR, Run 1, read-out: MIC | P. mirabilis A9554 CL-R; Run 2 | E. coli R5 KAT; Escherichia coli, R5KAT | E. coli R5 KAT; Run 2, Ec-55 | E. coli P01495 CP.TC-R; Run 2 | K. pneumoniae D11; D11, Run 2 | E. coli NIHJ; Escherichia coli, Run 1, read-out: MIC | E. coli NIHJ; Run 2 | E. coli ML1630 NPT-1; ML1630NPT1, Run 2 | P. aeruginosa A9930; A9930, Run 2
6.3 µg/mL: S. marcescens A20019; A20019, Run 1, read-out: MIC | [7]; Run 1
12.5 µg/mL: P. stuartii A20894 GAT-2; Providencia stuartii, A20894GAT2 | P. stuartii A20894 GAT-2; Run 2, Ps-2 | S. marcescens A20019; A20019, Run 2
> 100 µg/mL: P. aeruginosa GN-315 KAT; Pseudomonas aeruginosa, GN315, Run 1, read-out: MIC | P. aeruginosa GN-315 KAT; Run 2 | [5]; Pseudomonas aeruginosa, A20896GAT3, Run 1, read-out: MIC | [5]; Run 2
0.4 µg/mL: K. pneumoniae D11; D11, Run 1 | S. aureus Smith; Run 1 | P. aeruginosa A9930; A9930, Run 1 | P. vulgaris A9436; Proteus vulgaris, A9436, Run 1, read-out: MIC | P. vulgaris A9436; Run 2
1.6 µg/mL: E. coli NR79/W677 KAT; Run 1 | E. coli A20732 GAS; Run 2 | S. aureus A20239 NPT-1,2 | E. cloacae A20364 NPT-1; A20364NPT1, Run 2 | E. cloacae A21006 NPT-2; Enterobacter cloacae, A21006NPT2 | E. cloacae A21006 NPT-2; Run 2, E1-12 | S. aureus D133 SH, Sth-R; Run 2 | S. aureus D133 SH, Sth-R; [10] | E. coli P01495 CP.TC-R; Run 1 | E. coli JR88 CAT-1; Escherichia coli, JR88CAT1 | E. coli JR88 CAT-1; Run 2, Ec-62 | [6]; A20601GAT1, Run 2 | E. coli A20107 NPT-2; A20107NPT2, Run 1 | E. coli A20107 NPT-2; A20107NPT2, Run 2 | E. coli JR35/C600 NPT-1; Escherichia coli, JR35/C600NPT1 | E. coli JR35/C600 NPT-1; Run 2, Ec-10 | E. coli ML1630 NPT-1; ML1630NPT1, Run 1
25 µg/mL: [2]; Klebsiella pneumoniae, Run 1, read-out: MIC | [2]; Run 2 | [8]; Escherichia coli | [8]; Run 2, Ec-53 | [9]; Pseudomonas, Run 1, read-out: MIC | [9]; Run 2
50 µg/mL: E. coli A20732 GAS; Run 1 | E. cloacae A20364 NPT-1; A20364NPT1, Run 1 | P. aeruginosa GN-4925; GN4925, Run 2 | [4]; Run 1 | [4]; Run 2
0.2 µg/mL: B. subtilis PCT-219; PCT219, Run 1 | S. aureus Smith; Run 2
